The target in data set [1] is phosphatidylinositol-specific phospholipase C (PLC). Nature of the data set: Inhibition of phosphatidylinositol-specific phospholipase C enzymatic activity (hydrolysis of [3H]phosphatidylinositol). The format is biochemical. The conditions noted are these: soluble fraction of human platelets; 20 min preincubation, 15 min reaction, pH 6.5, 37° C.; read-out: IC50 (Inhibitor concentration inhibiting 50% of the enzyme). On the procedure:
The following experiments were carried out with the compounds prepared in the Examples 1-5 above mentioned in order to evaluate their ability to inhibit the enzymatic activity of phosphatidylinositol-specific phospholipase C (PLC).
The test were carried out according to the following operations.
1. Preparation of phosphatidylinositol-specific phospholipase C enzyme from human platelets.
As the starting material human plasma enriched with human platelets was used.
Platelets were precipitated from plasma by centrifugation at 0°-4° C. for 30 minutes at 2,500×g. The platelets precipitate was washed twice by using a buffer "A" Hepes pH 7 (137 mM NaCl, 20 mM Hepes; 1.0 mM EGTA; 5 mM glucose) and successively recovered by using buffer "B" Hepes (10 mM Hepes, pH 7).
The platelets were sonicated and centrifuged at 3,200×g for 20 minutes at 0-4° C. The surnatant consisting of platelets homogenate, was separated and ultracentrifuged at 105,000×g for 1 hour, thereby obtaining two fractions: the soluble one and the particulate one, both containing PLC.
2. Preparation of phosphatidylinositol substrate.
The substrate marked for PLC, L-3-phosphatidyl [2-^3 H] inositol, cod. […]
The product was purified by HPLC and had the following characteristics: specific activity 20 Ci/mMol (22.6 mCi/mg), radioactivity concentration 50μCi/ml ([…]=1.85 ×10^6 Bq); the hydroxyl groups 1 and 2 of glycerol resulted esterified with stearic acid and arachidonic acid in 90% of the product.
1 ml of a chloroform solution containing L-phosphatidylinositol (10 mg/ml sigma cod P 25/7 containing mainly stearic acid and arachidonic acid) was taken. […] Marked phosphatidylinositol was added to 9 ml of said solution in such an amount that in 300μl of the solution (2.0× 10^-4 M) thus obtained, 130,078±1316 Dpm were recorded. […]
In order to determine the inhibitory activity of the compounds of the present invention, said compounds and the enzyme were preincubated for 20 minutes. […] A suitable aliquot of the aqueous phase was utilized for the scintillatot readings.

Data set [2] concerns K562 erythroleukaemia cell line. Nature of the data set: In vitro antitumoral activity / toxicity assay (propidium iodide, flow cytofluorometry). The format is cell-based. The conditions noted are these: FIG. 1. The method, then:
The compound described in example 1.3 and named 309 bis was tested to evaluate the "in vitro" antitumoral activity according to the following method:
Cell cultures. K562 erythroleukaemia cell line was obtained from ATCC (Rockville, Md., USA). Cell culture media and plastic were from Flow (U.K.). Cells were grown in RPMI 1640 medium supplemented with 10% (v/v) heat-inactivated foetal calf serum, 2mM L-glutamine, 2.0 g.1^-1 bicarbonate, and 10 mM Hepes (4-(2-hydroxyethyl)-1-piperazine ethanesulphonic acid) in humidified atmosphere with 5% (v/v) CO2 at 37° C. Coltures were performed without the addition of any antibiotics, and were routinely checked for the presence of Mycoplasma infection.
Toxicity assay. Cells were washed and suspended to the final concentration of 10^6 ml^-1 in a medium containing 5% (v/v) FCS. The chemical compounds under evaluation were diluted from a 2 mM stock solution containing 5% (v/v) FCS and 0.2% (v/v) dimethylsulphoxide (DMSO, FCS and medium were added in sequence to facilitate solubility); when necessary, solutions were treated with short sonical pulses. 0.2% DMSO was added to controls. […] The 560-580 nm fluorescence of the death cells, excited at 490-495 nm, was monitored on a FACS-analizer flow cytofluorometer (Becton Dickinson, Calif., USA) using a Consort 30 programme. […]

Consider `CCCCCCCCCCCCCCSP(=O)(O)O[C@@H]1[C@H](O)[C@H](O)[C@@H](O)[C@H](O)[C@H]1O` (relative stereo) [Example 3.3, 1-O-(TETRADECYLPHOSPHOTHIOLYL)-MYO-INOSITOL], for which, in data set [1], the IC50 was around 100 µM. In the case of `CCCCCCCCSP(=O)(O)O[C@@H]1[C@H](O)[C@H](O)[C@@H](O)[C@H](O)[C@H]1O` (relative stereo) [Example 5.3, 1-O-(OCTYLPHOSPHOTHIOLYL)-MYO-INOSITOL], the IC50 in data set [1] is above 100 µM. With `CCCCCCCCCCCCCCCCCCSP(=O)(O)O[C@@H]1[C@H](O)[C@H](O)[C@@H](O)[C@H](O)[C@H]1O` (relative stereo) [Example 1.3, 1-O-(OCTADECYLPHOSPHOTHIOLYL)-MYO-INOSITOL], the “% toxicity (percentage of killed cells), maximum” value in data set [2] (concentration 10^-3 -3×10^-3 M) is recorded as around 100%. Further, the “antitumoral activity on erythroleukaemic cells” value in data set [2] (concentration 10^-5 M) is reported as “shows antitumoral activity”.

Consider `CCCCCCCCCCCCSP(=O)(O)O[C@@H]1[C@H](O)[C@H](O)[C@@H](O)[C@H](O)[C@H]1O` (relative stereo) [Example 4.3, 1-O-(DODECYLPHOSPHOTHIOLYL)-MYO-INOSITOL], for which the IC50 in data set [1] was above 100 µM.

The values above are taken from patent publication US5352810A, “Phosphatidylinositol analogues, inhibitors of phosphatidylinositol specific phospholipase C” (Mediolanum Farmaceutici S.p.A., priority 1991, dated 1994).
